Tests used:
Dipeptidyl peptidase 3 [1] = biological target: T1, Dipeptidyl peptidase 3 (Homo sapiens, UniProt Q9NY33); assay: Enzyme Inhibition Assay; conditions: pH 7.4; 25 °C
T1 sequence (Q9NY33 whole entry): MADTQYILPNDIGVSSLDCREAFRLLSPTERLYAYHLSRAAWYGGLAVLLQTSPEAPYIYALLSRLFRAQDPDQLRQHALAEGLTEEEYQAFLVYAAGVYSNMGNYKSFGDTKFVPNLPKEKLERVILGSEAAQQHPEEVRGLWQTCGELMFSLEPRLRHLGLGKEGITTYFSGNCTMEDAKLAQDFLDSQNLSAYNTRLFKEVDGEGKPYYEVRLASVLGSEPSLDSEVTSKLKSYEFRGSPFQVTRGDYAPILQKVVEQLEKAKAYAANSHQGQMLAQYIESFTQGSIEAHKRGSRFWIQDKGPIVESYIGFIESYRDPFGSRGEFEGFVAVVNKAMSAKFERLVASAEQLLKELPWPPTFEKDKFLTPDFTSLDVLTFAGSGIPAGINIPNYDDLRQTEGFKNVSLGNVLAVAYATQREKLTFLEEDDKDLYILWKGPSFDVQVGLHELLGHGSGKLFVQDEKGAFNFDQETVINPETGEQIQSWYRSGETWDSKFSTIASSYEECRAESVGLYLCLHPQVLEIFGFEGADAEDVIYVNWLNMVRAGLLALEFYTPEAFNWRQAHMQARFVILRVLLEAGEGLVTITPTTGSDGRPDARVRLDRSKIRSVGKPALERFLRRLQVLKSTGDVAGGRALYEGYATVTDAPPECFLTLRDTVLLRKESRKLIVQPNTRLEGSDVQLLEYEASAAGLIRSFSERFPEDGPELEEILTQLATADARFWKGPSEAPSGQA
From the text: The IC50 value is defined as the concentration of an inhibitor with caused 50% reduction of the enzyme activity under specific condition. The principle of these assay with synthetic 2-naphthylamide substrates is based on the absorbance at 530nm of a chromophoric complex formed by the reaction product 2-naphthylamine with Fast Blue B salt.

Dipeptidyl peptidase 3 [2] = biological target: T1, Dipeptidyl peptidase 3; assay: Enzyme Inhibition Assay; conditions: pH 7.4; 25 °C; remark: listed apart in the source

SMILES | IC50 (Dipeptidyl peptidase 3 [1]) [µM] | Kd (Dipeptidyl peptidase 3 [2]) [µM]
c1ccc(C2C(c3nc4ccc(C5=NCCN5)cc4[nH]3)C(c3ccccc3)C2c2nc3ccc(C4=NCCN4)cc3[nH]2)cc1 (stereo not drawn) [2,4-Disubstituted-1,3-di-(5-amidino-2-benzoimidazolyl)-cyclobutane hydrochoride, 1'] | 2.8 | 0.2
N=C(N)c1ccc2nc(C3C(c4ccccc4)C(c4nc5ccc(C(=N)N)cc5[nH]4)C3c3ccccc3)[nH]c2c1 (stereo not drawn) [2,4-Disubstituted-1,3-di-(5-amidino-2-benzoimidazolyl)-cyclobutane hydrochoride, 2'] | 5.6 | –
CC(C)N=C(N)c1ccc2nc(C3C(c4ccccc4)C(c4nc5ccc(C(=N)NC(C)C)cc5[nH]4)C3c3ccccc3)[nH]c2c1 (stereo not drawn) [2,4-Disubstituted-1,3-di-(5-amidino-2-benzoimidazolyl)-cyclobutane hydrochoride, 3'] | > 10 | –
Clc1ccccc1C1C(c2nc3ccc(C4=NCCN4)cc3[nH]2)C(c2ccccc2Cl)C1c1nc2ccc(C3=NCCN3)cc2[nH]1 (stereo not drawn) [2,4-Disubstituted-1,3-di-(5-amidino-2-benzoimidazolyl)-cyclobutane hydrochoride, 4'] | > 1.7 | –
N=C(N)c1ccc2nc(C3C(c4ccccc4Cl)C(c4nc5ccc(C(=N)N)cc5[nH]4)C3c3ccccc3Cl)[nH]c2c1 (stereo not drawn) [2,4-Disubstituted-1,3-di-(5-amidino-2-benzoimidazolyl)-cyclobutane hydrochoride, 5'] | 7 | –
CC(C)N=C(N)c1ccc2nc(C3C(c4ccccc4Cl)C(c4nc5ccc(C(=N)NC(C)C)cc5[nH]4)C3c3ccccc3Cl)[nH]c2c1 (stereo not drawn) [2,4-Disubstituted-1,3-di-(5-amidino-2-benzoimidazolyl)-cyclobutane hydrochoride, 6'] | 6 | –
c1coc(C2C(c3nc4ccc(C5=NCCN5)cc4[nH]3)C(c3ccco3)C2c2nc3ccc(C4=NCCN4)cc3[nH]2)c1 (stereo not drawn) [2,4-Disubstituted-1,3-di-(5-amidino-2-benzoimidazolyl)-cyclobutane hydrochoride, 7'] | 8 | –
c1csc(C2C(c3nc4ccc(C5=NCCN5)cc4[nH]3)C(c3cccs3)C2c2nc3ccc(C4=NCCN4)cc3[nH]2)c1 (stereo not drawn) [2,4-Disubstituted-1,3-di-(5-amidino-2-benzoimidazolyl)-cyclobutane hydrochoride, 8'] | 10 | –

Second part, the compound after the results:

IC50 (Dipeptidyl peptidase 3 [1]) [µM] | Kd (Dipeptidyl peptidase 3 [2]) [µM] | SMILES
53 | – | N=C(N)c1ccc2[nH]c(-c3c[nH]cn3)nc2c1 [Benzimidazole derivative, 1]
18 | – | c1ncc(-c2nc3cc(C4=NCCN4)ccc3[nH]2)[nH]1 [Benzimidazole derivative, 2]
10 | – | C(=Cc1nc2ccc(C3=NCCN3)cc2[nH]1)c1ccccc1 [Benzimidazole derivative, 3]
> 100 | – | C(=C\c1nc2ccccc2[nH]1)/c1ccccc1 [Benzimidazole derivative, 4]

From BindingDB's records for doi:10.1016/j.bioorg.2006.11.002 (The Josip Juraj Strossmayer University, 2007)
